What is called IC50 is the concentration needed to halve the response being measured. The term Ki denotes a measure of affinity in units of concentration, obtained from inhibition or displacement.

Consider 2 compounds from patent US20110172163A1, “Novel Protease Inhibitors” (QUEENSLAND UNIVERSITY OF TECHNOLOGY, priority 2008, published 2011).

The target in assay [1] is T1, KLK4 (Homo sapiens, UniProt Q9Y5K2). The assay is described as follows: Inhibitor kinetics: KLK4 amidolytic activity with peptide-pNA substrates. It is filed as biochemical. Further details: pro-region of PSA (KLK3), replacing the native KLK4 pro-region (N, cleaved yes); made in house. The following applies: substrate FVQR-pNA (0.2 mM); read-out: IC50. As to the method: Human recombinant KLK4 was expressed in E. coli using a previously described chimeric KLK4 plasmid construct where the native pro-region was replaced with the pro-region of PSA, enabling autoactivation. Protein was expressed as inclusion bodies which were isolated and solubilised as described previously to yield 90% pure KLK4. Protein refolding was performed by dilution into 100 volumes of refolding buffer I (2 M urea, 0.1M NaCl, 5 mM GSH, 0.5 mM GSSG, 10 mM benzamidine, 50 mM tris HCl pH 8.0, 2 mM CaCl2) over 44 hours before further dilution into 3 volumes refolding buffer II (refolding buffer I with 0.5 M urea 0.5 mM GSH, 0.05 mM GSSG, 2 mM CaCl2) over another 24 hours. Dialysis was performed as previously described (with additional 2 mM CaCl2 to reduce aggregation) before concentration using UNO sphere Q (Biorad) eluting with tris buffered saline (pH 7.5)/2 mM CaCl2. Subsequently, the material was purified to apparent homogeneity (according to coomassie blue stained SDS PAGE) by gel filtration using Sephacryl S-200 (GE Health Care) pre-equilibrated with 50 mM Tris-HCl pH 7.5, 20 mM NaCl and 2 mM CaCl2.
All enzymes and substrates were obtained from Sigma Chemicals if not otherwise specified. Bacterially expressed human KLK4 (37 ng), bovine β-trypsin (20 ng), bovine thrombin (20 ng), bovine α-chymotrypsin (0.5 μg), protease (0.5 μg; Streptomyces griseus type XIV), bovine plasminogen (0.5 μg), and human matriptase (30 ng; R&D Systems) were incubated with various concentrations of inhibitors in 200 μL assay buffer for 10 minutes prior to initiation by the addition of 100 μL of 0.3 mM of peptide-pNA substrates (FVQR-pNA: KLK4; BAPNA: trypsin, (Streptomyces griseus Type XIV Protease and bovine plasma plasminogen); Bz-Phe-Val-Arg-pNA: thrombin and matriptase; Trp-pNA: α-chymotrypsin; Leu-pNA: (Streptomyces griseus Type XIV Protease and bovine plasma plasminogen). The release of pNa moiety was monitored as described above for 7 minutes with each point being the average of three independent triplicate reactions. IC50 was determined using the Prism 5 software suite (GraphPad software Inc.).

For assay [2], the target named is T2, trypsin (Bos taurus, UniProt P00760).
T2 construct: purchased Sigma Chemicals
The assay is described as follows: Protein proteolysis: fibrinogen digestion by trypsin (SDS-PAGE). It counts as biochemical, bovine. Conditions: SDS-PAGE. As to the method: (§1) Fibrinogen was solubilised in assay buffer to a final concentration of 1 mg/ml and digested with KLK4 (+/−inhibitor) over a period of 90 minutes at 37° C. Typically assays consisted of 5 μM protein substrate and 2.5 nM KLK4 protein or 1 nM trypsin made up to a final volume of 8 μl with assay buffer. Proteolysis was initiated by addition of KLK4 and terminated by addition of SDS PAGE sample buffer and heat denaturation at 100° C. for 5 minutes. Hydrolysis products were resolved on 10% SDS PAGE gels and compared with incubations terminated immediately after initiation (time 0), and substrate proteins incubated in assay buffer for 90 minutes in the absence of KLK4 or 4-16 mins with trypsin.

For assay [3], the target named is Thrombin. Conditions: cited from earlier work.
Assay [4] deals with T1, KLK4. The assay is described as follows: Protein proteolysis: fibrinogen digestion by KLK4 (SDS-PAGE). It is filed as biochemical. Further details: pro-region of PSA (KLK3), replacing the native KLK4 pro-region (only if the E. coli preparation was used) (N, cleaved yes); made in house. The following applies: inhibitor at 2 μM. How it is done:
as §1

Like-named read-outs stand apart in the source and are kept apart here. Bridge positions count the residues as written; N and C are the ends. Peptide text beside a SMILES is read from it.

T1 sequence (Q9Y5K2 31-254): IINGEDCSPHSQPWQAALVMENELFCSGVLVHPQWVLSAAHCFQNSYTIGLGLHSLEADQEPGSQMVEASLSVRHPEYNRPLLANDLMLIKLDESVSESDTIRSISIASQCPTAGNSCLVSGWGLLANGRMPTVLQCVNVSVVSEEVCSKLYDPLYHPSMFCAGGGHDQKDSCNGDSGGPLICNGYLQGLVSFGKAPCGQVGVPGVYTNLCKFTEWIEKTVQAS
T2 sequence (P00760 18-246 limits assumed): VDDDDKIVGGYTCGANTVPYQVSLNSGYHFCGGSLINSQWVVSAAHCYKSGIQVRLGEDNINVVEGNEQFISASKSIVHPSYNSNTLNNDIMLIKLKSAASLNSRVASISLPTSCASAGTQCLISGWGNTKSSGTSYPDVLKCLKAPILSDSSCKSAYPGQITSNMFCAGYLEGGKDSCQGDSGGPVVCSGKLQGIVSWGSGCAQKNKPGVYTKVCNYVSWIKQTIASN

As for `CC[C@H](C)[C@@H]1NC(=O)[C@H](C)NC(=O)[C@@H]2CCCN2C(=O)[C@H]([C@@H](C)CC)NC(=O)[C@H](CO)NC(=O)[C@H](CCCNC(=N)N)NC(=O)[C@H](CCC(N)=O)NC(=O)[C@@H]2CSSC[C@H](NC1=O)C(=O)N[C@@H](Cc1ccccc1)C(=O)N1CCC[C@H]1C(=O)N[C@@H](CC(=O)O)C(=O)NCC(=O)N[C@@H](Cc1ccccc1)C(=O)N2` [SFTI-FCQR Ala9] (cyclo(AICFPDGFCQRSIP); disulfide 3-9), the IC50 in assay [1] was 1140 ± 76 nM.

In the case of “Sunflower trypsin inhibitor [SFTI-1, reference compound]”, the “concentration that completely inhibits trypsin digestion of fibrinogen” value in assay [2] is reported as 31.25 nM. Also, the Ki in assay [3] (substrate N-t-Boc-LRR-AMC, Long et al. 2001) is 5050 nM; in assay [3] (substrate Unknown, Luckett et al. 1999), 136 nM. Also, the “inhibition of fibrinogen proteolysis by KLK4” value in assay [4] is listed as “no inhibition”.
